Reference: US6872707B1, “Halo derivatives of 9-deoxo-9a-aza-homerythromycin A” (PLIVA farmaceutska industrija dionicko drustvo, priority 1999, dated 2005)

What was measured:
Assay type in all cases: cell-based
[1] = system: S. aureus, E. faecalis and S. pneumoniae; test: In vitro antibacterial action of haloaryl derivatives on standard and resistent test microorganisms; conditions: comparison within the series
Source text: (§1) In vitro action of the novel compounds was investigated on a series of standard and resistent test microorganisms. […] In N′-(C1-C6)haloalkylcarbamoyl derivatives similar traits were observed.

[2] = system: test microorganisms sensitive to erythromycin; test: In vitro antibacterial activity against erythromycin-sensitive test microorganisms
Source text: as §1

resistent strains = test: In vitro antibacterial activity against resistent strains
Source text: as §1

`CC[C@H]1OC(=O)[C@H](C)[C@@H](O[C@H]2C[C@@](C)(OC)[C@@H](O)[C@H](C)O2)[C@H](C)[C@@H](O[C@@H]2O[C@H](C)C[C@H](N(C)C)[C@H]2O)[C@](C)(O)C[C@@H](C)CN(C(=S)Nc2cccc(C(F)(F)F)c2)[C@H](C)[C@@H](O)[C@]1(C)O` [Example 21, 9-deoxo-9a-N-{N′-[(3-trifluoromethyl-phenyl)thiocarbamoyl]}-9a-aza-9a-homoerythromycin A] was tested, and the “antibacterial in vitro activity (effectiveness)” value [1] was “the most active one”, the “activity against test microorganisms sensitive to erythromycin” value [2] was “activity against test microorganisms sensitive to erythromycin” and the “activity against resistent strains” value (resistent strains) was “showed an activity against resistent strains”.
